The target of data set [1] is LINC-PINT. The data set is described as follows: HEK293-TLR7, 100 nM ASO, then resiquimod.
For data set [2], the target named is LINC-PINT. The data set is described as follows: HEK293-TLR8, 100 nM ASO, then resiquimod.

Strand notation (5' to 3'): a small letter for the sugar, then the base; units joined by * are phosphorothioate-linked, units joined directly phosphodiester-linked; [ ] holds rarer units or linkages, { } end groups; capitals alone tell only the bases. d = 2'-deoxy (DNA); m = 2'-O-methyl

As for “mC*mA*mU*mC*mC*dC*dT*dT*dC*dT*dG*dC*dT*dG*dC*mC*mA*mA*mG*mC”, the TLR7 signal (NF-kB luciferase) (% of resiquimod alone) in data set [1] was 54.3. For the same substance, in data set [2], the TLR8 potentiation (NF-kB luciferase) (fold of resiquimod alone) is 2.95.
In data set [1], “mC*mC*mC*mU*mU*dC*dT*dC*dT*dC*dT*dG*dG*dT*dC*mC*mC*mA*mU*mC” returned a TLR7 signal (NF-kB luciferase) (% of resiquimod alone) of 49.6. For the same substance, the TLR8 potentiation (NF-kB luciferase) (fold of resiquimod alone) in data set [2] turned out to be 2.6.
Substance “mA*mA*mA*mA*mG*dT*dG*dG*dG*dA*dA*dA*dT*dA*dA*mA*mG*mG*mU*mU” returned a TLR7 signal (NF-kB luciferase) (% of resiquimod alone) in data set [1] of 30.9. The TLR8 potentiation (NF-kB luciferase) (fold of resiquimod alone) in data set [2] amounted to 1.48.
On the same counts, the results for “mU*mC*mC*mC*mA*dT*dC*dC*dC*dT*dT*dC*dT*dG*dC*mU*mG*mC*mC*mA” are 43.1 and 3.95.
On the same counts, the results for “mU*mG*mG*mC*mG*dT*dA*dG*dT*dT*dT*dC*dT*dC*dT*mU*mC*mC*mU*mC” are 32.8 and 2.48.
As for “mC*mA*mA*mG*mC*dC*dC*dC*dA*dG*dC*dG*dT*dT*dC*mC*mU*mC*mC*mG”, the TLR7 signal (NF-kB luciferase) (% of resiquimod alone) in data set [1] amounted to 45.2. The TLR8 potentiation (NF-kB luciferase) (fold of resiquimod alone) in data set [2] is 2.74.
For “mC*mC*mU*mU*mC*dT*dG*dC*dT*dG*dC*dC*dA*dA*dG*mC*mC*mC*mC*mA”, the TLR7 signal (NF-kB luciferase) (% of resiquimod alone) in data set [1] was 85.6. Also, the TLR8 potentiation (NF-kB luciferase) (fold of resiquimod alone) in data set [2] was determined as 1.45.
Turning to “mA*mG*mU*mU*mU*dA*dT*dA*dG*dA*dT*dT*dT*dC*dA*mA*mG*mU*mA*mG”, the TLR7 signal (NF-kB luciferase) (% of resiquimod alone) in data set [1] was 37.6. Also, the TLR8 potentiation (NF-kB luciferase) (fold of resiquimod alone) in data set [2] was determined as 3.06.
On the same counts, the results for “mU*mG*mA*mC*mA*dA*dA*dA*dC*dA*dA*dT*dA*dA*dT*mA*mA*mC*mA*mG” are 36.7 and 1.31.
On the same counts, the results for “mU*mG*mA*mC*mA*dT*dT*dT*dC*dG*dT*dG*dG*dC*dT*mC*mC*mU*mA*mC” are 33.6 and 1.73.
On the same counts, the results for “mG*mU*mC*mC*mG*dT*dA*dC*dC*dT*dC*dC*dA*dC*dC*mC*mA*mC*mC*mG” are 22.8 and 1.7.
Substance “mA*mA*mA*mA*mA*dG*dT*dG*dG*dG*dA*dA*dA*dT*dA*mA*mA*mG*mG*mU” displayed a TLR7 signal (NF-kB luciferase) (% of resiquimod alone) in data set [1] of 28.8. The TLR8 potentiation (NF-kB luciferase) (fold of resiquimod alone) in data set [2] worked out at 1.34.
For “mG*mU*mU*mC*mA*dG*dT*dC*dA*dG*dA*dT*dC*dG*dC*mU*mG*mG*mG*mA”, in that order: 17.5 and 1.55.
For the substance “mG*mG*mU*mC*mC*dC*dA*dT*dC*dC*dC*dT*dT*dC*dT*mG*mC*mU*mG*mC”, the TLR7 signal (NF-kB luciferase) (% of resiquimod alone) in data set [1] stood at 20.8. Also, the TLR8 potentiation (NF-kB luciferase) (fold of resiquimod alone) in data set [2] was 1.28.
“mC*mA*mC*mU*mG*dT*dA*dT*dT*dT*dT*dA*dT*dT*dA*mC*mA*mG*mA*mA” returned a TLR7 signal (NF-kB luciferase) (% of resiquimod alone) in data set [1] of 58.1. The TLR8 potentiation (NF-kB luciferase) (fold of resiquimod alone) in data set [2] is 2.67.
For “mA*mU*mG*mA*mC*dA*dT*dT*dT*dC*dG*dT*dG*dG*dC*mU*mC*mC*mU*mA”, in that order: 32.5 and 0.88.
For “mU*mG*mC*mU*mA*dT*dT*dC*dA*dT*dA*dT*dT*dT*dT*mU*mA*mU*mU*mU”, in that order: 42.4 and 3.01.
In data set [1], “mC*mC*mU*mA*mU*dT*dA*dA*dA*dA*dA*dA*dA*dT*dT*mU*mA*mU*mA*mC” yielded a TLR7 signal (NF-kB luciferase) (% of resiquimod alone) of 109. Also, the TLR8 potentiation (NF-kB luciferase) (fold of resiquimod alone) in data set [2] stood at 2.19.
For “mC*mC*mU*mU*mC*dT*dC*dT*dC*dT*dG*dG*dT*dC*dC*mC*mA*mU*mC*mC”, in that order: 60.9 and 3.01.
On the same counts, the results for “mU*mG*mA*mU*mG*dA*dT*dG*dC*dT*dT*dG*dC*dA*dG*mG*mA*mG*mG*mC” are 25.5 and 1.18.
In the case of “mG*mA*mU*mG*mG*dT*dT*dC*dC*dA*dG*dT*dC*dC*dC*mU*mC*mU*mU*mC”, the TLR7 signal (NF-kB luciferase) (% of resiquimod alone) in data set [1] worked out at 22.3. In addition, the TLR8 potentiation (NF-kB luciferase) (fold of resiquimod alone) in data set [2] stood at 0.84.
For “mU*mC*mU*mG*mG*dT*dC*dC*dC*dA*dT*dC*dC*dC*dT*mU*mC*mU*mG*mC”, in that order: 29.4 and 3.36.
On the same counts, the results for “mG*mU*mC*mU*mC*dC*dT*dC*dC*dA*dC*dA*dC*dC*dC*mU*mU*mC*mU*mC” are 25 and 1.98.
